The values below are quoted from earlier work in PMC12675387, “Receptor interaction profiles of 4-alkoxy-2,6-dimethoxyphenethylamines (Ψ derivatives) and related amphetamines” (Frontiers in Pharmacology, 2025).

Read-outs that look alike come from different tables or passages of the source.

One data set deals with T1, human 5-HT2A receptor (Homo sapiens, UniProt P28223).
T1 construct: expressed in transfected cells; host or cells: NIH-3T3 mouse embryonic fibroblasts
To be noted: cited from earlier work; for type of agonism at the 5-HT2A receptor: ref Kolaczynska et al., 2019; for h5-HT2A activation efficacy Emax ± SD: reference substances, ref Luethi et al., 2018.

For data set [1] the following is noted: cited from earlier work; for fold increase in human potency from mescaline: ref Kolaczynska et al., 2022; for duration of effects in humans / psychoactive dose in humans: anecdotal.
The next data set addresses h5-HT2A receptor (Homo sapiens, UniProt P28223). Set-up: expressed in transfected cells; host or cells: HEK 293 cells (membrane preparations). To be noted: ref Kolaczynska et al., 2022; cited from earlier work.
A further data set addresses T2, human 5-HT2B receptor (Homo sapiens, UniProt P41595).
T2 construct: expressed in transfected cells; host or cells: HEK 293 cells
Set-up: method as in Luethi et al., 2018. To be noted: reference substances; ref Luethi et al., 2018; cited from earlier work.

Another data set has as its target rTAAR1 (Rattus norvegicus, UniProt Q923Y9). More on the design: expressed in transfected cells; host or cells: HEK 293 cells (membrane preparations). To be noted: cited from earlier work.
Another data set deals with mTAAR1 (Mus musculus, UniProt Q923Y8). Set-up: expressed in transfected cells; host or cells: HEK 293 cells (membrane preparations); method as in Luethi et al. (2019b). To be noted: reference substance; ref Luethi et al. (2019b); read-out: mTAAR1 Ki ± SD; cited from earlier work.
Sequence of mTAAR1 (Q923Y8 whole entry): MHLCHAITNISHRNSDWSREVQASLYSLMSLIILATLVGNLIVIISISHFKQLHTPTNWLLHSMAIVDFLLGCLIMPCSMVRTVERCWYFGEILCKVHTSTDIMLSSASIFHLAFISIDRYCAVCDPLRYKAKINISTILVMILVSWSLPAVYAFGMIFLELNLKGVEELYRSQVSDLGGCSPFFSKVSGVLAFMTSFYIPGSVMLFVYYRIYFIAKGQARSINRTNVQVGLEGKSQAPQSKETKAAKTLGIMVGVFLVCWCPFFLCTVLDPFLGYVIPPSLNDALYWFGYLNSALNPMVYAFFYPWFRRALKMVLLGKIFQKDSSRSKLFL
A further data set addresses hD2 receptor (Homo sapiens, UniProt P14416). Set-up: expressed in transfected cells; host or cells: HEK 293 cells (membrane preparations); method as in Luethi et al. (2019b). To be noted: reference substance; ref Luethi et al. (2019b); read-out: hD2 Ki ± SD; cited from earlier work.
The next data set concerns the target hNET (Homo sapiens, UniProt P23975). Set-up: expressed in transfected cells; host or cells: HEK 293 cells (membrane preparations); method as in Luethi et al. (2019b). To be noted: reference substance; ref Luethi et al. (2019b); read-out: hNET Ki ± SD; cited from earlier work.
The target in a further data set is hDAT (Homo sapiens, UniProt Q01959). Set-up: expressed in transfected cells; host or cells: HEK 293 cells (membrane preparations); method as in Luethi et al. (2019b). To be noted: reference substance; ref Luethi et al. (2019b); read-out: hDAT Ki ± SD; cited from earlier work.
Sequence of hDAT (Q01959 whole entry): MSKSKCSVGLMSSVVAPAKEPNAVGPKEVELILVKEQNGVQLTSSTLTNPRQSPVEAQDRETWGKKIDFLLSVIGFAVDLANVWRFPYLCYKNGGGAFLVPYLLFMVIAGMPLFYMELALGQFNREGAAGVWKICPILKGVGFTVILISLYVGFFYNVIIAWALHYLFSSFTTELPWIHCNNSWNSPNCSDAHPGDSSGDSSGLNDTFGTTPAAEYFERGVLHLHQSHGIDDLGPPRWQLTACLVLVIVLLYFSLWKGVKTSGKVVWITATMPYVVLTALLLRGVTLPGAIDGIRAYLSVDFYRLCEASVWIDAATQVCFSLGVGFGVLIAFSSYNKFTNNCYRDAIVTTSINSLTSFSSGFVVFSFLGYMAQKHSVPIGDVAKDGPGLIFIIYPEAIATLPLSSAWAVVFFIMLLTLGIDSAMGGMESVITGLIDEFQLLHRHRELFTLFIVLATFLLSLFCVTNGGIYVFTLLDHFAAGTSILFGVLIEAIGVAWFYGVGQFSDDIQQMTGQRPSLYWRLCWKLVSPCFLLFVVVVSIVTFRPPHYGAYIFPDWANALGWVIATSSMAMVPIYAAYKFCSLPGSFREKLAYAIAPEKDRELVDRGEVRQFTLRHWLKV
The target in the next data set is hSERT (Homo sapiens, UniProt P31645). More on the design: expressed in transfected cells; host or cells: HEK 293 cells (membrane preparations); method as in Luethi et al. (2019b). To be noted: reference substance; ref Luethi et al. (2019b); read-out: hSERT Ki ± SD; cited from earlier work.
Sequence of hSERT (P31645 whole entry): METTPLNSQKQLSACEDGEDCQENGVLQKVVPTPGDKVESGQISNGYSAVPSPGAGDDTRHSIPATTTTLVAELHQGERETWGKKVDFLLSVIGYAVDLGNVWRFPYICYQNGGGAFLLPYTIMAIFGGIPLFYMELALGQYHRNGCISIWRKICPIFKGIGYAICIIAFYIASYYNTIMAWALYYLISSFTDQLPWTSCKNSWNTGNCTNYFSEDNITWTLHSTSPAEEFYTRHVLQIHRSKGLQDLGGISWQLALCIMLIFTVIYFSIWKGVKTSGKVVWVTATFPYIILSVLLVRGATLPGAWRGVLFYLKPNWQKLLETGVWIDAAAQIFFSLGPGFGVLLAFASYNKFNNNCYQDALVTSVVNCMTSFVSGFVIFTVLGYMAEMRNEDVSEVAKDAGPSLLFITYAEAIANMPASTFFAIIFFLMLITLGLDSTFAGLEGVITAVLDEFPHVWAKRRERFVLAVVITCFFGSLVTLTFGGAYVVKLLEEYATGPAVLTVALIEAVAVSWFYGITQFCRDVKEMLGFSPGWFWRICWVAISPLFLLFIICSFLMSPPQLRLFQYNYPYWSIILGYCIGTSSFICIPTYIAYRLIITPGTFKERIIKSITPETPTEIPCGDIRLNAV
For a further data set, the target named is T3, hα2A adrenergic receptor (Homo sapiens, UniProt P08913).
T3 sequence (P08913 1-465): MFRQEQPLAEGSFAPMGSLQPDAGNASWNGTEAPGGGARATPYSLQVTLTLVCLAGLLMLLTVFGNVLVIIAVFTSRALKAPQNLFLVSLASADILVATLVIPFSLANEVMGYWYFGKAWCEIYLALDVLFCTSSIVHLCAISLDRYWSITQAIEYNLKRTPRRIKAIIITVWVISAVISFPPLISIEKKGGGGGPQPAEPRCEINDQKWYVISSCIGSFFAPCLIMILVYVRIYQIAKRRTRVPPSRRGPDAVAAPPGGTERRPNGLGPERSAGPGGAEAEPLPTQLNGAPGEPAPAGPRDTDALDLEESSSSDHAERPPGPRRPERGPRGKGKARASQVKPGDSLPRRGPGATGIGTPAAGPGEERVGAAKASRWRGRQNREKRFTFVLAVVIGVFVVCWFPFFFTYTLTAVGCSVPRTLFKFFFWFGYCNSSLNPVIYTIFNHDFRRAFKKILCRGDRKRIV
Set-up: expressed in transfected cells; host or cells: Chinese hamster lung cells (membrane preparations); method as in Luethi et al. (2019b). To be noted: reference substance; ref Luethi et al. (2019b); read-out: hα2A Ki ± SD; cited from earlier work.

The next data set deals with T4, hα1A adrenergic receptor (Homo sapiens, UniProt P35348).
T4 sequence (P35348 1-466): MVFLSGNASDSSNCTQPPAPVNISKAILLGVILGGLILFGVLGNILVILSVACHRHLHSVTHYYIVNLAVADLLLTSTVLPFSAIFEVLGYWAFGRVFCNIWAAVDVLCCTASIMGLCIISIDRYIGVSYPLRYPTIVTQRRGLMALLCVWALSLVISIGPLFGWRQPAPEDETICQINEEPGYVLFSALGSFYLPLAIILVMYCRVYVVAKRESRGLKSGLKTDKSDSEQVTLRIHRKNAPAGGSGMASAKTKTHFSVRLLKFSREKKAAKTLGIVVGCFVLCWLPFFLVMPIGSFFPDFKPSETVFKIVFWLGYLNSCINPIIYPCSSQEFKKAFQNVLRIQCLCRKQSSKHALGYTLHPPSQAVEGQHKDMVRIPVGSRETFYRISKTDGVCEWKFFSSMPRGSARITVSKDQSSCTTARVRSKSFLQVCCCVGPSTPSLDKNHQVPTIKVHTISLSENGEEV
Set-up: expressed in transfected cells; host or cells: Chinese hamster ovary cells (membrane preparations); method as in Luethi et al. (2019b). To be noted: reference substance; ref Luethi et al. (2019b); read-out: hα1A Ki ± SD; cited from earlier work.

T1 sequence (P28223 whole entry): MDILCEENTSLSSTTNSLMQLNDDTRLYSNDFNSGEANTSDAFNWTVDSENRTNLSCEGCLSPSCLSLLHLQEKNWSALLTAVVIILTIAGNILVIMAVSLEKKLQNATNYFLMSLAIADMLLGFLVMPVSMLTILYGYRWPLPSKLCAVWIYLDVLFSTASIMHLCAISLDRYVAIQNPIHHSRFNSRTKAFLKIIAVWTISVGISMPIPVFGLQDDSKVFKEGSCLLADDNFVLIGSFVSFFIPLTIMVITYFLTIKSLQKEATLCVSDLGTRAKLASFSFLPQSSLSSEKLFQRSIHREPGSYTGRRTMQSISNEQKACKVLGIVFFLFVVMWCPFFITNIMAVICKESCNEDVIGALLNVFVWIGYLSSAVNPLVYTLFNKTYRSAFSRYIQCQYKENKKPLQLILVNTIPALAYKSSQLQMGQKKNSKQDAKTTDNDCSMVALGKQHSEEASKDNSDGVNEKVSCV
Sequence of h5-HT2A receptor (P28223 whole entry): as above
Sequence of rTAAR1 (Q923Y9 whole entry): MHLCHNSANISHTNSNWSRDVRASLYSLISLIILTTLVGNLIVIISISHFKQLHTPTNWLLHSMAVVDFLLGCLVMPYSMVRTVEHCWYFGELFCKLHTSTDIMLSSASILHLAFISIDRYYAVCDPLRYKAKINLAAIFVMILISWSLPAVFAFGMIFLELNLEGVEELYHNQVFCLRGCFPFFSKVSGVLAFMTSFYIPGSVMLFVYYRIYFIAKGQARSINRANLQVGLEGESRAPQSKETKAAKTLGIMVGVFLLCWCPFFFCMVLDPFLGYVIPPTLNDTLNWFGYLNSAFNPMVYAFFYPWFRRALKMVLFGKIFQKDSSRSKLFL
T2 sequence (P41595 whole entry): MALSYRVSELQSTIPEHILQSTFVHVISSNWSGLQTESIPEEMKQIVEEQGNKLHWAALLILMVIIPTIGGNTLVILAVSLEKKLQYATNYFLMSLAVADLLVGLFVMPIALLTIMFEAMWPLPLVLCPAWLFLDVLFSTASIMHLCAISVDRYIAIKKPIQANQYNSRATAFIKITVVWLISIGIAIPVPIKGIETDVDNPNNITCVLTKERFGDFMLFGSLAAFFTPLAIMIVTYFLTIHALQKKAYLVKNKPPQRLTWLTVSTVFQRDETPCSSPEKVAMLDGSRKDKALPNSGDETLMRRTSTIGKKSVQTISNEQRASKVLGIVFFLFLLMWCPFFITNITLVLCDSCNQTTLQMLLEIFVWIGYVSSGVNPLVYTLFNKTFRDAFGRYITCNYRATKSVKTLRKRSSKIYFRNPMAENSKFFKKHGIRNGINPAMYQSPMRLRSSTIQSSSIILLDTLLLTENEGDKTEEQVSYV
Sequence of hD2 receptor (P14416 whole entry): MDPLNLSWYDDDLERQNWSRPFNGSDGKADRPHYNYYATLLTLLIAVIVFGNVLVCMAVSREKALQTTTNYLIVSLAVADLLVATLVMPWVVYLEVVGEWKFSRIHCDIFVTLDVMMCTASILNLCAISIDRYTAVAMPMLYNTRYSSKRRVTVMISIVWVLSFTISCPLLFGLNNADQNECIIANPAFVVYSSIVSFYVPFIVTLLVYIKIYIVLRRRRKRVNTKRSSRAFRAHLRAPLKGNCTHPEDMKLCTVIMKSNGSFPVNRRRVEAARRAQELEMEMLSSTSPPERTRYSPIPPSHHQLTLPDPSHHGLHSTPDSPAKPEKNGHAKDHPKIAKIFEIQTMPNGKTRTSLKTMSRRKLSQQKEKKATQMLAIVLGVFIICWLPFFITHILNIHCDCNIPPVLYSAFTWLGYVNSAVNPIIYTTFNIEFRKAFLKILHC
Sequence of hNET (P23975 whole entry): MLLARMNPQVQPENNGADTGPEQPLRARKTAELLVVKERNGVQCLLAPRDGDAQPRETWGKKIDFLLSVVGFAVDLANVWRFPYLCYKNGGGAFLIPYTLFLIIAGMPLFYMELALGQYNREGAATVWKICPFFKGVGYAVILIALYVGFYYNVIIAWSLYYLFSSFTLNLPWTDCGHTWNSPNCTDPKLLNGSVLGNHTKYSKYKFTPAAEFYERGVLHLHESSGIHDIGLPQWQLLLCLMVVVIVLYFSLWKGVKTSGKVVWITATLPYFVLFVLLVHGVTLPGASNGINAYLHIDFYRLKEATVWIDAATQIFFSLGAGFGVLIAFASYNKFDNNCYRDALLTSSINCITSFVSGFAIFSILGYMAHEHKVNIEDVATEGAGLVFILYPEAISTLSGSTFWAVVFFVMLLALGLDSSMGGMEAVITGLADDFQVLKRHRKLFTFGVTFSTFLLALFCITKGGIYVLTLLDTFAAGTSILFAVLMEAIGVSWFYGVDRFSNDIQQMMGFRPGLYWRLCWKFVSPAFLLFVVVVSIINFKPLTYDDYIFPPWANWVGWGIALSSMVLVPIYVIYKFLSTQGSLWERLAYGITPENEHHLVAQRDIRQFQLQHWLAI

Consider `C=C(C)COc1cc(OC)c(CC(C)N)cc1OC` (stereo not shown) [MMALM], for which, at human 5-HT2A receptor, the “type of agonism at the 5-HT2A receptor” value is listed as “full agonists”.

For `C=CCOc1cc(OC)c(CC(C)N)cc1OC` (stereo not shown) [MALM], the “type of agonism at the 5-HT2A receptor” value on human 5-HT2A receptor is “full agonists”.

On to `COc1cc(CCN)cc(OC)c1OC(F)(F)F` [trifluoromescaline], for which the “fold increase in human potency from mescaline” value in data set [1] is greater than 9 fold. In addition, the “fold increase in receptor affinity (Ki values) from mescaline” value at h5-HT2A receptor is 33 fold.

As to `COc1cc(CCN)c(OC)cc1Br` [2C-B, 4-bromo-2,5-dimethoxyphenethylamine], the “h5-HT2A activation efficacy Emax ± SD” value on human 5-HT2A receptor is 92 ± 8%. For the same compound, on human 5-HT2B receptor, the “h5-HT2B activation efficacy Emax ± SD” value is 52 ± 26%.

For the compound `COc1cc(CCN)cc(OC)c1OC(F)F` [DFM], the “fold increase in human potency from mescaline” value in data set [1] is 4 fold. Further, at h5-HT2A receptor, the “fold increase in receptor affinity (Ki values) from mescaline” value is on record as 3 fold.

For the compound `CCN(CC)C(=O)[C@@H]1C=C2c3cccc4[nH]cc(c34)C[C@H]2N(C)C1` [LSD, lysergic acid diethylamide], on human 5-HT2A receptor, the “h5-HT2A activation efficacy Emax ± SD” value is reported as 73 ± 2%.

As to `COc1cc(C)cc(OC)c1CC(C)N` (stereo not shown) [Ψ-DOM, 2,6-dimethoxy-4-methylamphetamine], in data set [1] (ref Shulgin and Shulgin, 1991), the “duration of effects in humans” value is 6 to 8 h and the “psychoactive dose in humans” value was 15 to 25 mg.

For the compound `COc1cc(SC(C)C)cc(OC)c1CCN` [Ψ-2C-T-4, 2,6-dimethoxy-4-isopropylthiophenethylamine], the “psychoactive dose in humans” value in data set [1] (ref Shulgin and Shulgin, 1991) is given as greater than 12 mg. In [1] (highest dose evaluated (12 mg), anecdotal report, ref Shulgin and Shulgin, 1991), the activity in humans result was “inactive”.

In the case of `COc1cc(CC(C)N)c(OC)cc1C` (stereo not shown) [DOM], in [1] (ref Shulgin and Shulgin, 1991), the “duration of effects in humans” value was 14 to 20 h and the “psychoactive dose in humans” value is 3 to 10 mg.

Turning to `CCOc1cc(OC)c(CCN)cc1OC` [2C-O-2], the Ki (usually a dissociation constant, usually derived from enzyme kinetics or from competition with a known ligand) on rTAAR1 (read-out: TAAR1 Ki (rat and mouse TAAR1 as worded; compared with the rat value of Ψ-2C-O-2), 2,4,5-trisubstituted derivative, ref Kolaczynska et al., 2019) was 0.67 µM.

For the compound `COc1cc(SC(C)C)c(OC)cc1CCN` [2C-T-4], in data set [1] (ref Shulgin and Shulgin, 1991), the “duration of effects in humans” value was 12 to 18 h and the “psychoactive dose in humans” value was 8 to 20 mg.

As for `COc1cc(OC)c(OC)cc1CC(C)N` (stereo not shown) [TMA-2], in data set [1] (ref Shulgin and Shulgin, 1991), the “duration of effects in humans” value is 8 to 12 h and the “psychoactive dose in humans” value is 20 to 40 mg.

Turning to `CNC(C)Cc1ccc2c(c1)OCO2` (stereo not shown) [MDMA], the Ki at rTAAR1 (reference substance, ref Luethi et al. (2019b), read-out: rTAAR1 Ki ± SD) is 0.25 ± 0.01 µM; at mTAAR1, 3.1 µM; on hD2 receptor, greater than 13 µM; at hNET, greater than 8.7 µM; on hDAT it was greater than 8.5 µM; on hSERT it was greater than 7.5 µM. Also, the inhibition constant (Ki) on hα2A adrenergic receptor was 4.6 µM; at hα1A adrenergic receptor, 6.9 µM.
